Legend:
Conditions in all cases: read-out: Activity
P-gp (ABCB1) [1] = target: T1, P-gp (ABCB1) (Homo sapiens, UniProt P08183); assay: Activation of human P-gp expressed in high five insect cell membrane vesicles by measuring the vanadate-sensitive ATPase activity of P-gp at 2.5 uM preincubated for 5 mins in the presence of sodium orthovanadate measured after 20 mins by colorimetric method
P-gp (ABCB1) [2] = target: T1, P-gp (ABCB1); assay: Activation of human P-gp expressed in high five insect cell membrane vesicles by measuring the vanadate-sensitive ATPase activity of P-gp at 0.5 uM preincubated for 5 mins in the presence of sodium orthovanadate measured after 20 mins by colorimetric method
P-gp (ABCB1) [3] = target: T1, P-gp (ABCB1); assay: Activation of human P-gp expressed in high five insect cell membrane vesicles by measuring the vanadate-sensitive ATPase activity of P-gp at 0.05 uM preincubated for 5 mins in the presence of sodium orthovanadate measured after 20 mins by colorimetric method

T1 sequence (P08183 whole entry): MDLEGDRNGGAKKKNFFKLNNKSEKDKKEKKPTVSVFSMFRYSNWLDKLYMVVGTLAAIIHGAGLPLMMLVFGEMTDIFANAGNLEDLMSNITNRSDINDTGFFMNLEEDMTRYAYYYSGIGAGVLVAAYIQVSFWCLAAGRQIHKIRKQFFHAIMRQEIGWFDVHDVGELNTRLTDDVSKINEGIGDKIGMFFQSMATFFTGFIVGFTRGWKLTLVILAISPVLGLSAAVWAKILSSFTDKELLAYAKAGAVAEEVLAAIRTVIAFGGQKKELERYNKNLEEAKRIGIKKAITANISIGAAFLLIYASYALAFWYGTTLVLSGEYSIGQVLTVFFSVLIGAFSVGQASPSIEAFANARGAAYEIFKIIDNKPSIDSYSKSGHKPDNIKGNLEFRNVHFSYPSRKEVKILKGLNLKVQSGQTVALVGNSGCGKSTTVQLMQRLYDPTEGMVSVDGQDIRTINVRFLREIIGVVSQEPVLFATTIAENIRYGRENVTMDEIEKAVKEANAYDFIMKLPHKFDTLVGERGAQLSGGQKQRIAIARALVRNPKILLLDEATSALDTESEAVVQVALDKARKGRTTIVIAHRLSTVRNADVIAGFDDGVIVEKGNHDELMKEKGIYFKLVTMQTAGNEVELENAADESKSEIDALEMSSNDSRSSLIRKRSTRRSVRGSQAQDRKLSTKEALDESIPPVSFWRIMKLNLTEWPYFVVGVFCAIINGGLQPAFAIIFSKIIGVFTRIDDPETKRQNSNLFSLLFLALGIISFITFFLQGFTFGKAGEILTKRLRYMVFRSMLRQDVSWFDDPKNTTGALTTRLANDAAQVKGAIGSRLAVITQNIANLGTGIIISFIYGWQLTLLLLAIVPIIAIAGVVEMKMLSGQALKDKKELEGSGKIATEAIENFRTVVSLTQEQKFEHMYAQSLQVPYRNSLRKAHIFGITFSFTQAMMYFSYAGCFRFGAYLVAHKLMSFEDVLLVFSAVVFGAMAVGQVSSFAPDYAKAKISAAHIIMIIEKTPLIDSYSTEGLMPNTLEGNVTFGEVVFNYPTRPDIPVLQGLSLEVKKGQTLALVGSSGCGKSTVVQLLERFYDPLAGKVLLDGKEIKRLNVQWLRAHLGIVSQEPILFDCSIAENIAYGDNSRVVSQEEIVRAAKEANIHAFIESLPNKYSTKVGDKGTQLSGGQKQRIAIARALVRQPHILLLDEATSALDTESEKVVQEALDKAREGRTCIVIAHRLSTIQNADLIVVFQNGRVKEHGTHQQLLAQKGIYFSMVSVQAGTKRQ

SMILES	activity at 20 min, 2.5 µM (P-gp (ABCB1) [1]) [%]	activity at 20 min, 0.5 µM (P-gp (ABCB1) [2]) [%]	activity at 20 min, 0.05 µM (P-gp (ABCB1) [3]) [%]
COc1cc(CC(=O)N[C@H](c2nc(C(=O)NC3CCC(F)(F)CC3)cs2)C(C)C)cc(OC)c1OC	70.2	–	–
COc1cc(C(=O)N[C@H](c2nc(C(=O)Nc3ccccc3NC(=O)c3ccccc3)cs2)C(C)C)cc(OC)c1OC	–	52	≤ 10
COc1cc(C(=O)N[C@H](c2nc(C(=S)NC3CCCCC3)cs2)C(C)C)cc(OC)c1OC	27	≤ 10	–
COc1cc(C(=O)N[C@H](c2nc(C(=O)Nc3ccccc3C(=O)c3ccc(N=[N+]=[N-])cc3)cs2)C(C)C)cc(OC)c1OC	169	148	–
COc1cc(C(=O)N[C@H](c2nc(C(=O)Nc3ccccc3Cc3ccccc3)cs2)C(C)C)cc(OC)c1OC	–	112	15
COc1cc(C(=O)N[C@H](c2nc(C(=O)NC3CC3)cs2)C(C)C)cc(OC)c1OC	–	≤ 10	≤ 10
COc1cc(C(=O)N[C@H](c2nc(C(=O)Nc3ccc(F)cc3)cs2)C(C)C)cc(OC)c1OC	244	59.5	–
COc1cc(C(=O)N[C@H](c2nc(C(=O)NC3CCN(c4ncccn4)CC3)cs2)C(C)C)cc(OC)c1OC	83	17.1	–
CC(C)[C@H](NC(=O)c1ccccc1N=[N+]=[N-])c1nc(C(=O)Nc2ccccc2C(=O)c2ccccc2)cs1	182	142	–
COc1cc(C(=O)N[C@H](c2nc(C(=O)NC34CC5CC(CC(C5)C3)C4)cs2)C(C)C)cc(OC)c1OC	–	≤ 10	≤ 10
CC(C)[C@H](NC(=O)c1cnc2ccccc2c1)c1nc(C(=O)NC2CCC(F)(F)CC2)cs1	83.9	–	–
COc1cc(C(=O)N[C@H](c2nc(C(=O)Nc3ccccc3C(=O)c3ccc(Br)cc3)cs2)C(C)C)cc(OC)c1OC	–	149	309
COc1cc(C(=O)N[C@H](c2nc(C(=O)N[C@H]3CCCc4ccccc43)cs2)C(C)C)cc(OC)c1OC	123	108	–
CC(C)[C@H](NC(=O)c1ccc(N=[N+]=[N-])cc1)c1nc(C(=O)Nc2ccccc2C(=O)c2ccccc2)cs1	164	135	–
COc1cc(C(=O)N[C@H](c2nc(C(=O)N3CCC(=O)CC3)cs2)C(C)C)cc(OC)c1OC	≤ 10	≤ 10	–
COc1cc(C(=O)NC(c2nc(C(=O)NCC3CCC(N)CC3)cs2)C(C)C)cc(OC)c1OC (configuration not stated)	≤ 10	≤ 10	–
COc1cc(C(=O)N[C@H](c2nc(C(=O)N3CCC(N4CCCCC4)CC3)cs2)C(C)C)cc(OC)c1OC	47.2	37.2	–
COc1cc(C(=O)N[C@H](c2nc(C(=O)N3CCC(F)(F)CC3)cs2)C(C)C)cc(OC)c1OC	55.9	40.9	–
COc1cc(C(=O)N[C@H](c2nc(C(=O)NCCCC(F)(F)F)cs2)C(C)C)cc(OC)c1OC	77.3	17.1	–
COc1cc(C(=O)N[C@H](c2nc(C(=O)NC3CCOCC3)cs2)C(C)C)cc(OC)c1OC	≤ 10	26.9	–
COc1ccc(C(=O)N[C@H](c2nc(C(=O)NC3CCC(F)(F)CC3)cs2)C(C)C)cc1	35.8	–	–
COc1cc(C(=O)N[C@H](c2nc(C(=O)NCC3CCNCC3)cs2)C(C)C)cc(OC)c1OC	≤ 10	23	–
COc1cc(C(=O)N[C@H](c2nc(C(=O)N3CCC(C(F)(F)F)CC3)cs2)C(C)C)cc(OC)c1OC	75.6	13.3	–
COc1cc(NC(=O)c2csc([C@@H](NC(=O)c3ccccc3C(=O)c3ccccc3)C(C)C)n2)cc(OC)c1OC	–	46	≤ 10
CC(C)[C@H](NC(=O)c1ccccc1)c1nc(C(=O)NC2CCC(F)(F)CC2)cs1	10.5	–	–
COc1cc(C(=O)NCc2nc(C(=O)NC3CCC(F)(F)CC3)cs2)cc(OC)c1OC	13	≤ 10	–
COc1cc(C(=O)C(=O)N[C@H](c2nc(C(=O)NC3CCC(F)(F)CC3)cs2)C(C)C)cc(OC)c1OC	178	–	–

SMILES	activity at 20 min, 2.5 µM (P-gp (ABCB1) [1]) [%]	activity at 20 min, 0.5 µM (P-gp (ABCB1) [2]) [%]	activity at 20 min, 0.05 µM (P-gp (ABCB1) [3]) [%]
COc1cc(C(=O)N[C@H](c2nc(C(=O)NC3CCC3)cs2)C(C)C)cc(OC)c1OC	≤ 10	25.3	–
COc1cc(C(=O)N[C@H](c2nc(C(=O)NC3CCS(=O)(=O)CC3)cs2)C(C)C)cc(OC)c1OC	≤ 10	≤ 10	–
COc1cc(C(=O)N[C@H](c2nc(C(=O)Nc3ccccc3C(=O)Nc3ccccc3)cs2)C(C)C)cc(OC)c1OC	–	142	21
CC(C)[C@H](NC(=O)C1CCOCC1)c1nc(C(=O)NC2CCC(F)(F)CC2)cs1	≤ 10	–	–
COc1cc(C(=O)N[C@H](c2nc(C(=O)Nc3ccccc3Oc3ccccc3)cs2)C(C)C)cc(OC)c1OC	–	88	≤ 10
COc1cc(C(=S)N[C@H](c2nc(C(=S)NC3CCC(F)(F)CC3)cs2)C(C)C)cc(OC)c1OC	64	25	–
CC(C)[C@H](NC(=O)c1cncnc1)c1nc(C(=O)NC2CCC(F)(F)CC2)cs1	≤ 10	–	–
COc1ccc(C(=O)N[C@H](c2nc(C(=O)NC3CCC(F)(F)CC3)cs2)C(C)C)cc1OC	11.9	–	–
COc1cc(C(=O)N[C@H](c2nc(C(=O)NC3CCNCC3)cs2)C(C)C)cc(OC)c1OC	14.5	46.3	–
CC(C)[C@H](NC(=O)c1cscn1)c1nc(C(=O)NC2CCC(F)(F)CC2)cs1	49.7	–	–
COc1cc(C(=O)N[C@H](c2nc(C(=O)NC3CCN(Cc4ccccc4)CC3)cs2)C(C)C)cc(OC)c1OC	154	169	–
CC(C)[C@H](NC(=O)c1cccc(N=[N+]=[N-])c1)c1nc(C(=O)Nc2ccccc2C(=O)c2ccccc2)cs1	194	122	–
COc1cc(C(=O)N[C@H](c2nc(C(=O)N3CCC(N)CC3)cs2)C(C)C)cc(OC)c1OC	≤ 10	45.4	–
COc1cc(C(=O)N[C@H](c2nc(C(=O)NC3CCN(C(=O)OC(C)(C)C)CC3)cs2)C(C)C)cc(OC)c1OC	48	52.7	–
COc1cc(C(=O)N[C@H](c2nc(C(=O)NC3CCC(C)(C)CC3)cs2)C(C)C)cc(OC)c1OC	34.3	≤ 10	–
COc1cc(C(=O)N2CCCC2c2nc(C(=O)NC3CCC(F)(F)CC3)cs2)cc(OC)c1OC (configuration not stated)	21	≤ 10	–
COc1cc(C(=O)Nc2nc(C(=O)NC3CCC(F)(F)CC3)cs2)cc(OC)c1OC	60.2	53.9	–
CC(C)[C@H](NC(=O)c1ccc(N=[N+]=[N-])cc1)c1nc(C(=O)Nc2ccccc2C(=O)c2ccc(Br)cc2)cs1	84.7	99.4	–
CC(C)[C@H](N)c1nc(C(=O)NC2CCC(F)(F)CC2)cs1	≤ 10	≤ 10	–
COc1cc(C(=O)N[C@H](c2nc(C(=O)Nc3cccc(C(=O)c4ccccc4)c3)cs2)C(C)C)cc(OC)c1OC	–	143	13
COc1cc(C(=O)N[C@H](c2nc(C(=O)N(C3CCCCC3)C3CCCCC3)cs2)C(C)C)cc(OC)c1OC	134	109	–
COc1cc(C(=O)N[C@H](c2nc(C(=O)Nc3cc(F)c(F)c(F)c3)cs2)C(C)C)cc(OC)c1OC	176	57	–
COc1cc(C(=S)N[C@H](c2nc(C(=S)NC3CCCCC3)cs2)C(C)C)cc(OC)c1OC	92	65	–
COc1cc(C(=O)N[C@H](c2nc(C(=O)NC3CCC(=O)CC3)cs2)C(C)C)cc(OC)c1OC	≤ 10	13.1	–
COc1cc(C(=O)NC(CC(C)C)c2nc(C(=O)NC3CCC(F)(F)CC3)cs2)cc(OC)c1OC (configuration not stated)	68	16	–
COc1cc(C(=O)N[C@H](c2nc(C(=O)NC3CCCC3)cs2)C(C)C)cc(OC)c1OC	≤ 10	≤ 10	–
